How the values were obtained:
[1] = test system: NIRV mutants E119V, R292K and N294S; conditions: cited from earlier work
[2] = test system: influenza A(H3N2) infection with pneumonia; conditions: human, in vivo

CCOC(=O)C1=C[C@@H](OC(CC)CC)[C@H](NC(C)=O)[C@@H](N)C1 [Oseltamivir, ethyl (3R,4R,5S)-5-amino-4-acetamido-3-(pentan-3-yloxy)-cyclohex-1-ene-1-carboxylate]
increase of the 50% inhibitory concentration (IC50) by NIRV mutants [1]: > 100 fold | Admission to ICU - (%) [2]: (2.7) % | Admission to ICU - no. [2]: 3 no. | Complications: Nosocomial infection - (%) [2]: (5.5) % | Complications: Nosocomial infection - no. [2]: 6 no. | Complications: Ventilator associated pneumonia - (%) [2]: (0.9) % | Complications: Ventilator associated pneumonia - no. [2]: 1 no. | Length of hospitalization (median; IQR) [2]: 3 | Mortality 90-day - (%) [2]: (10) % | Mortality 90-day - no. [2]: 11 no. | Readmission ≤30 days from discharge - (%) [2]: (17.3) % | Readmission ≤30 days from discharge - no. [2]: 19 no.

Source: US20190054060A1 (priority 2016, published 2019)
